# Residues, ends and D or L forms follow the SMILES beside them.
# Test system: P-selectin
# Experiment: Inhibition of binding of human neutrophils to P-selectin (neutrophil adhesion to purified P-selectin immobilized on plastic wells)
# Assay type: cell-based
# Conditions: P-selectin isolated from human platelets, plated at 5 micrograms/mL, myeloperoxidase readout, peptides tested 1.0 mM to 0.001 mM
# Description: Peptides can be screened for their ability to inhibit adhesion to cells, for example, neutrophil adhesion to purified P-selectin immobilized on plastic wells, using the assay described by Geng, et al., Nature 343, 757-760 (1990).
# Human neutrophils are isolated from heparinized whole blood by density gradient centrifugation on Mono-Poly resolving media, Flow Laboratories. Neutrophil suspensions are greater than 98% pure and greater than 95% viable by trypan blue exclusion. For adhesion assays, neutrophils are suspended at a concentration of 2×10^6 cells/mL in Hanks' balanced salt solution containing 1.26 mM Ca^2+ and 0.81 mM Mg^2+ (HBSS, Gibco) with 0.05 mg/mL human serum albumin (HBSS/HSA). Adhesion assays are conducted in triplicate in 96-well microtiter plates, Corning, incubated at 4° C. overnight with 50 microliters of various protein solutions.
# P-selectin is isolated from human platelet lysates by immunoaffinity chromatography on antibody S12-Sepharose™ and ion-exchange chromatography on a Mono-Q™ column (FLPC, Pharmacia Fine Chemicals), as follows.
# Outdated human platelet packs (100 units) obtained from a blood bank and stored at 4° C. are pooled, adjusted to 5 mM EDTA at pH 7.5, centrifuged at 4,000 rpm for 30 minutes in 1 liter bottles, then washed three times with 1 liter of 0.1M NaCl, 20 mM Tris pH 7.5 (TBS), 5 mM EDTA, 5 mM benzamidine.
# The pellets are then resuspended in a minimum amount of wash buffer and made 1 mM in DIFP, then frozen in 50 mL screwtop tubes at -80° C. The frozen platelets are thawed and resuspended in 50 mL TBS, 5 mM benzamidine, 5 mM EDTA pH 7.5, […]. The suspension is frozen and thawed two times in a dry ice-acetone bath using a 600 mL lyophilizing flask, then homogenized in a glass/teflon mortar and pestle and made 1 mM in DIFP. The NaCl concentration is adjusted to 0.5M with a stock solution of 4M NaCl. After stirring the suspension at 4° C., it is centrifuged in polycarbonate tubes at 33,000 rpm for 60 minutes at 4° C. The supernatant (0.5M NaCl wash) is removed and saved; this supernatant contains the soluble form of P-selectin. Care is taken not to remove the top part of the pellet with the supernatant. The pellets are then homogenized in extraction buffer (TBS, 5 mM benzamidine, 5 mM EDTA, pH 7.5, 100 μM leupeptin, 2% Triton X-100). After centrifugation at 19,500 rpm for 25 minutes at 4° C., the supernatant is removed. The extraction procedure is repeated with the pellet and the supernatant is combined with the first supernatant. The combined extracts, which contain the membrane form of P-selectin, are adjusted to 0.5M NaCl.
# The soluble fraction (0.5M NaCl wash) and the membrane extract (also adjusted to 0.5M NaCl) are absorbed with separate pools of the monoclonal antibody S12 (directed to P-selectin) previously coupled to Affigel (Biorad) at 5 mg/mL for 2 hours at 4° C. After letting the resins settle, the supernatants are removed. The S12 Affigel containing bound GMP-140 is then loaded into a column and washed overnight at 4° C. with 400 mL of 0.5M NaCl, 20 mM Tris pH 7.5, 0.01% Lubrol PX.
# Bound P-selectin is eluted from the S12 Affigel with 100 mL of 80% ethylene glycol, 1 mM MES pH 6.0, 0.01% Lubrol PX. Peak fractions with absorbance at 280 nm are pooled. Eluates are dialyzed against TBS with 0.05% Lubrol, then applied to a Mono Q column (FPLC from Pharmacia). The concentrated protein is step eluted with 2M NaCl, 20 mM Tris pH 7.5 (plus 0.05% Lubrol PX for the membrane fraction). Peak fractions are dialyzed into TBS pH 7.5 (plus 0.05% Lubrol PX for the membrane fraction).
# P-selectin is plated at 5 micrograms/mL and the control proteins: human serum albumin (Alb), platelet glycoprotein IIb/IIIa (IIb), von Willebrand factor (vWF), fibrinogen (FIB), thrombomodulin (TM), gelatin (GEL) or human serum (HS), are added at 50 micrograms/mL. […]
row,Structure (SMILES),IC50 [µM]
1,"CC[C@H](C)[C@H](NC(=O)[C@H](Cc1ccc(O)cc1)NC(=O)[C@@H](NC(=O)[C@H](CC(C)C)NC(=O)[C@H](Cc1c[nH]cn1)NC(=O)CNC(=O)[C@H](CCCNC(=N)N)NC(C)=O)C(C)C)C(=O)N[C@@H](CCC(N)=O)C(N)=O [Ac--RGHLVYIQ--NH2, Acetyl-arginyl-glycyl-histidyl-leucyl-valyl-tyrosyl-isoleucyl-glutamine-amide] (Ac-RGHLVYIQ-NH2)",428
2,"CC[C@H](C)[C@H](NC(=O)[C@@H](CCc1ccccc1)NC(=O)[C@@H](NC(=O)[C@H](CC(C)C)NC(=O)[C@H](CCCCN)NC(=O)[C@@H](NC(=O)[C@H](Cc1ccc(O)cc1)NC(C)=O)[C@@H](C)O)C(C)C)C(=O)N[C@@H](CCC(N)=O)C(N)=O [Ac--YTKLV--(D-homo-F)--IQ--NH2, Acetyl-tyrosyl-threonyl-lysyl-leucyl-valyl-(D-homo-phenylalanyl)-isoleucyl- glutamine-amide] (HELM PEPTIDE1{[ac].Y.T.K.L.V.[O=C([C@@H](CCc1ccccc1)N[*:1])[*:2]].I.Q.[am]}$$$$V2.0)",26
3,"CC(=O)N[C@@H](Cc1ccc(O)cc1)C(=O)N[C@H](C(=O)N[C@@H](CCCCN)C(=O)N[C@@H](CC(C)C)C(=O)N[C@H](C(=O)N[C@@H](Cc1ccccc1)C(=O)N[C@@H](CCC(N)=O)C(=O)N[C@@H](CCC(N)=O)C(N)=O)C(C)C)[C@@H](C)O [Ac--YTKLVFEQ--NH2, Acetyl-tyrosyl-threonyl-lysyl-leucyl-valyl-phenylalanyl-glutaminyl-glutamine-amide] (Ac-YTKLVFQQ-NH2)",99
4,"CC[C@H](C)[C@H](NC(=O)[C@H](Cc1ccccc1)NC(=O)[C@@H](NC(=O)[C@H](CC(C)C)NC(=O)[C@H](CCCCN)NC(=O)[C@@H](NC(=O)[C@H](Cc1ccc(O)cc1)NC(C)=O)[C@@H](C)O)C(C)C)C(=O)N[C@@H](CCC(N)=O)C(N)=O [Ac--YTKLVFIQ--NH2, Acetyl-tyrosyl-threonyl-lysyl-leucyl-valyl-phenylalanyl-isoleucyl-glutamine-amide] (Ac-YTKLVFIQ-NH2)",149
5,"CC[C@H](C)[C@H](NC(=O)[C@H](Cc1c[nH]cn1)NC(=O)[C@@H](NC(=O)[C@H](CC(C)C)NC(=O)[C@H](CCCCN)NC(=O)[C@@H](NC(=O)[C@H](Cc1ccc(O)cc1)NC(C)=O)[C@@H](C)O)C(C)C)C(=O)N[C@@H](CCC(N)=O)C(N)=O [Ac--YTKLVHIQ--NH2, Acetyl-tyrosyl-threonyl-lysyl-leucyl-valyl-histidyl-isoleucyl-glutamine-amide] (Ac-YTKLVHIQ-NH2)",81
6,"CC[C@H](C)[C@H](NC(=O)[C@H](C)NC(=O)[C@@H](NC(=O)[C@H](CCc1ccccc1)NC(=O)[C@H](CCCCN)NC(=O)[C@@H](NC(=O)[C@@H](N)Cc1ccc(O)cc1)[C@@H](C)O)C(C)C)C(=O)N[C@@H](CCC(N)=O)C(N)=O [YTK--(homo-F)--VAIQ--NH2, Tyrosyl-threonyl-lysyl-(homo-phenylalanyl)-valyl-alanyl-isoleucyl-glutamine-amide] (HELM PEPTIDE1{Y.T.K.[O=C([C@H](CCc1ccccc1)N[*:1])[*:2]].V.A.I.Q.[am]}$$$$V2.0)",52
7,"CC[C@H](C)[C@H](NC(=O)[C@H](C)NC(=O)[C@@H](NC(=O)[C@H](Cc1ccccc1)NC(=O)[C@H](CCCCN)NC(=O)[C@@H](NC(=O)[C@@H](N)Cc1ccc(O)cc1)[C@@H](C)O)C(C)C)C(=O)N[C@@H](CCC(N)=O)C(N)=O [YTKFVAIQ--NH2, Tyrosyl-threonyl-lysyl-phenylalanyl-valyl-alanyl-isoleucyl-glutamine-amide] (H-YTKFVAIQ-NH2)",21
8,"CC[C@H](C)[C@H](NC(=O)[C@H](Cc1ccccc1)NC(=O)[C@@H](NC(=O)[C@H](CC(C)C)NC(=O)[C@H](CCCCN)NC(=O)[C@@H](NC(=O)[C@@H](N)Cc1ccc(O)cc1)[C@@H](C)O)C(C)C)C(=O)N[C@@H](CCC(N)=O)C(N)=O [YTKLVFIQ--NH2, Tyrosyl-threonyl-lysyl-leucyl-valyl-phenylalanyl-isoleucyl-glutamine-amide] (H-YTKLVFIQ-NH2)",22
9,"CC[C@H](C)[C@H](NC(=O)[C@H](C)NC(=O)[C@@H](NC(=O)[C@H](Cc1ccc(O)cc1)NC(=O)[C@H](CCCCN)NC(=O)[C@@H](NC(=O)[C@@H](N)Cc1ccc(O)cc1)[C@@H](C)O)C(C)C)C(=O)N[C@@H](CCC(N)=O)C(N)=O [YTKYVAIQ--NH2, Tyrosyl-threonyl-lysyl-tyrosyl-valyl-alanyl-isoleucyl-glutamine-amide] (H-YTKYVAIQ-NH2)",64
10,"CC[C@H](C)[C@H](NC(=O)[C@H](C)NC(=O)[C@@H](NC(=O)[C@H](Cc1ccccc1)NC(=O)[C@H](CCSC)NC(=O)[C@@H](NC(=O)[C@@H](N)Cc1ccc(O)cc1)[C@@H](C)O)C(C)C)C(=O)N[C@@H](CCC(N)=O)C(N)=O [YTMFVAIQ--NH2, Tyrosyl-threonyl-methionyl-phenylalanyl-valyl-alanyl-isoleucyl-glutamine-amide] (H-YTMFVAIQ-NH2)",114
11,"CSCC[C@H](NC(=O)[C@@H](NC(=O)[C@@H](N)Cc1ccc(O)cc1)[C@@H](C)O)C(=O)N[C@@H](CC(C)C)C(=O)N[C@H](C(=O)N[C@@H](C)C(=O)N[C@@H](Cc1ccccc1)C(=O)N[C@@H](CCC(N)=O)C(N)=O)C(C)C [YTMLVAFQ--NH2, Tyrosyl-threonyl-methionyl-leucyl-valyl-alanyl-phenylalanyl-glutamine-amide] (H-YTMLVAFQ-NH2)",93
12,"CC[C@@H](C)[C@@H](NC(=O)[C@@H](Cc1ccccc1)NC(=O)[C@H](NC(=O)[C@@H](CC(C)C)NC(=O)[C@@H](Cc1c[nH]cn1)NC(=O)CNC(=O)[C@H](N)CCCNC(=N)N)C(C)C)C(=O)N[C@H](CCC(N)=O)C(N)=O [rGhlvfiq--NH2, D-arginyl-glycyl-D-histidyl-D-leucyl-D-valyl-D-phenylalanyl-D-isoleucyl-D-glutamine-amide] (HELM PEPTIDE1{[dR].G.[dH].[dL].[dV].[dF].[dI].[dQ].[am]}$$$$V2.0)",270
